Reference: patent US6641840B2, “Sustained release formulations for growth hormone secretagogues” (Pfizer Inc., priority 2000, dated 2003)
Where no end group is shown, it is not given here. [ ]: non-standard residue; d: D form.

How the values were obtained:
[1] = tested on: rat pituitary cells; assay: Pituitary cell desensitization - intracellular calcium assay; type: cell-based
Source text: Thus, it appears that sustained release formulations would not provide the desired in vivo response. The experiment was designed so that changes in intracellular calcium concentration could be continuously monitored during successive exposures of the same cells to the indicated test substances.
Rat pituitary cells were isolated as described in Example 3 and plated onto poly-D-lysine-coated glass coverslips, one coverslip per well in 12-well plates, at a density of 3-4×10^5 cells per well. Assays were performed 3-4 days after plating. Cells were loaded with 5 μM fura-2 AM (Molecular Probes, Eugene, Oreg.), a calcium-sensitive fluorescent dye, by incubation for 30 min at room temperature. Fura-2 was dissolved in dimethylsulfoxide at 5 mM, then diluted into KRH buffer (115 mM NaCl, 5.4 mM KCl, 1.8 mM CaCl2, 1 mM MgCl2, 0.96 mM NaH2PO4, 25 mM HEPES, 6 mM glucose and 0.05% bovine serum albumin, adjusted to pH 7.3)
To assay changes in intracellular calcium concentration, a coverslip with attached cells was mounted in a perfusion chamber on the stage of an inverted microscope (Zeiss Axiovert 135 with epifluorescence, Geschaftsbereich Mikroscopie, Oberkochen, Germany) and continuously superfused at room temperature. After superfusion with KRH for 1-2 min, baseline fluorescence was recorded. Each test substance was applied for 2 min, followed by washout with KRH prior to stimulation with the next test substance. Up to 20 individual cells per field were selected for recording and were excited alternately at wavelengths of 380 nm or 340 nm (slit width 15 nm). Fluorescence emission at 510 nm was collected at 5 sec intervals by a low light CCD camera (Hamamatsu Photonics, Hamamatsu City, Japan), and digitized images for the two excitation wavelengths were analyzed using Videoprobe software (ETM Systems, Irvine, Calif.) to determine the 340 nm/380 nm fluorescence ratio for individual cells during each time interval. The 340 nm/380 nm fluorescence ratio is proportional to the concentration of intracellular calcium.

[2] = tested on: rat pituitary cells; assay: Pituitary cell desensitization - growth hormone release assay; type: cell-based
Protocol: The experiment was designed so that cultures were exposed to a growth hormone secretagogue for 60 min, then growth hormone release was measured during a subsequent 15 min exposure to the same or different growth hormone secretagogue.
Anterior pituitary glands from male Wistar rats (150-175 g, Charles River, Laboratories, Wilmington, Mass.) were collected in Hank's Balanced Salt Solution (#14170, Life Technologies, Gaithersburg, Md.). Glands were minced with a scalpel, then incubated with bacterial protease (Type IX, EC3.4.24.4, #P-6141, Sigma Chemicals, Milwaukee, Wis.) at 10 U/ml to release individual cells. Cells were pelleted by centrifugation at 200×g for 15 min, then suspended in culture medium and plated at a density of 6.0-6.5×10^4 cells per 0.5 ml per well in 48-well tissue culture plates (#3848, Costar Corporation, Cambridge, Mass.). Culture medium consisted of D-MEM (Dulbecco's Modified Eagle Medium) with high glucose and sodium bicarbonate (#11965) supplemented with 10% heat-inactivated horse serum (#26050, Life Technologies, Gaithersburg, Md.), 2.5% fetal bovine serum (#16140, Life Technologies, Gaithersburg, Md.), 0.1 mM MEM non-essential amino acids (#11140, Life Technologies, Gaithersburg, Md.), 100 U/ml nystatin (#15340, Life Technologies, Gaithersburg, Md.) and 50 ug/ml gentamicin sulfate (#15750, Life Technologies, Gaithersburg, Md.). Cultures were maintained for 3-4 days in a humidified, 5% CO2/95% air incubator at 37° C. prior to performing assays for growth hormone release.
For growth hormone release assays, cultures were pre-equilibrated at 37° C. in pre-warmed release medium for 1 h in the presence of a growth hormone secretagogue or excipient (Pretreatment). Release medium consisted of Phenol Red-free D-MEM without bicarbonate (#23800, Life Technologies, Gaithersburg, Md.) supplemented with 25 mM N-[2-hydroxyethyl]piperazine-N′-[2-ethanesulfonic acid] (HEPES), 4.5 g/L glucose, 0.11 g/L sodium pyruvate, 0.584 g/L […] and 0.5% bovine serum albumin (#A-7888, Sigma Chemicals, Milwaukee, Wis.), adjusted to pH 7.4. After pretreatment, the medium was removed and replaced with fresh pre-warmed release medium containing a growth hormone secretagogue or excipient at 0.5 ml/well for 15 min (Treatment). Medium from the Treatment was collected, centrifuged to remove any cells, then assayed for growth hormone content by a conventional double-antibody radioimmunoassay using monkey anti-growth hormone antisera (NIDDK anti-rGH-S-5) and reference rat growth hormone standard (NIDDK-rGH-RP) from Dr. A. F. Parlow, Harbor-UCLA Medical Center, Torrance, Calif. Immune complexes were precipitated using goat anti-monkey immunoglobulin G (#55418, Cappel, Durham, N.C.).
Growth hormone secretagogue solutions were prepared at 1000 times the desired concentration and diluted into pre-warmed release medium immediately before use. Peptides such as His-D-Trp-Ala-Trp-Ala-Trp-D-Phe-Lys-NH2 (GHRP-6, #8061, Peninsula Laboratories, Belmont, Calif.) and rat growth hormone releasing factor (GHRH, #8068, Peninsula Laboratories, Belmont, Calif.) were dissolved at 100 μM in 4 mM acetic acid, 10% ethanol, 0.1% bovine serum albumin; other growth hormone secretagogues were dissolved at 5 mM in dimethyl sulfoxide.

[Cl-].[K+] [KCl, reference compound]
response of the same (refractory) cells ([1]; after re-exposure to Compound A): remained responsive

GHRH: rat growth hormone releasing factor (GHRH, #8068, Peninsula Laboratories) (HADAIFTSSYRRILGQLYARKLLHEIMNRQQGERNQEQRSRFN; Somatoliberin; UniProt P09916 31-73, looked up) [reference compound]
GH release ([2]; pretreatment 100 nM GHRH 60 min, treatment none): 12.67 ± 3.31 ng/mL/15 min

H[dW]AWAW[dF]K-NH2 [GHRP-6, reference compound]
GH release ([2]; pretreatment 100 nM GHRP-6 60 min, treatment 100 nM GHRP-6 15 min): 7.83 ± 0.98 ng/mL/15 min
GH release ([2]; pretreatment 100 nM GHRP-6 60 min, treatment none): 9.06 ± 1.87 ng/mL/15 min
GH release ([2]; pretreatment none, treatment 100 nM GHRP-6 15 min, mean ± SD, n = 4): 31.01 ± 8.46 ng/mL/15 min
cellular responses (intracellular calcium) on repeated exposure ([1]; successive 2 min exposures with washout): homologous desensitization
